In one assay the test system is MV411. The assay can be described thus: Cellular assay, cell viability (ATPlite), MV411. Type of assay: cell-based. Particulars: MV411 cell line. On the procedure:
(§1) The compounds of the invention are also evaluated in the BRD4 dependant cell line for the cellular activity to generate cellular IC50 values.
(§2) Cells (e.g., BRD4 dependant cells) were counted and adjusted to 60,000 cells/mL. Using a Biotek EL406, 50 μL of the cells in media were distributed into 384 well white plates from Thermo. Immediately after plating, compounds of the invention in DMSO were distributed to plates. For large plate sets, cells were returned to a 37° C. incubator while not in use. The compounds were added to plates using a 100 nL 384 well pin transfer manifold on a Janus workstation. Stocks were arrayed in 10 point quadruplicate dose response in DMSO stock in 384-well Greiner compound plates. After addition of the compounds, plates were incubated for three days in a 37° C. incubator. Cell viability was read out using ATPlite from Perkin Elmer. Plates were removed from the incubator and brought to room temperature prior to use. Lyophilized powder was resuspended in lysis buffer and diluted 1:2 with DI water. 25 μL of this solution was added to each well using the Biotek liquid handler. Plates were sealed with adherent aluminum seals prior to vortexing and spinning down at 1000 g for 1 minute. Plates were incubated for 15 minutes at room temperature before signal was read on an Envision Plate Reader.
(ATP-based viability assays read luminescence as a measure of living cells.)

A further assay deals with NOMO-1. Nature of the assay: Cellular assay, cell viability (ATPlite), NOMO-1. Type of assay: cell-based. Particulars: NOMO-1 cell line. On the procedure: as §1, §2
The next assay has as its target AURKA (Homo sapiens (Human), UniProt O14965). The assay can be described thus: AURKA IC50. Type of assay: biochemical.
Another assay has as its target BRD4 (Homo sapiens (Human), UniProt O60885). The assay can be described thus: BRD4 IC50 (acetyl-histone binding assay). On the procedure: (§3) Assays were performed with minor modifications from the manufacturer's protocol (PerkinElmer, USA). All reagents were diluted in 50 mM HEPES, 150 mM NaCl, 0.1% w/v BSA, and 0.01% w/v Tween 20 at pH 7.5 and allowed to equilibrate to room temperature prior to addition to plates. After addition of Alpha beads to master solutions, all subsequent steps were performed in low light conditions. […] Addition to wells was performed with either a multichannel pipet (for optimization experiments) or a Biotek EL406 liquid handler. After a 1000-rpm spin-down for 1 minute, 100 nL of the solutions of the compounds of the invention from stock plates were added by pin transfer using a Janus Workstation (PerkinElmer, USA). The streptavidin-coated donor beads (25 μg/ml final) were added as with previous solution in a 2×, 10 μL volume. Following this addition, the plates were sealed with foil to block light exposure and to prevent evaporation. The plates were spun down again at 1000 rpm for 1 minute. Next, the plates were incubated in the room with the plate reader (for temperature equilibration) for 1.5 hour prior to reading the assay.

Another assay concerns the target AURKB (Homo sapiens (Human), UniProt Q96GD4). The assay can be described thus: AURKB IC50. The format is biochemical.
In the next assay the target is BRDT (Homo sapiens (Human), UniProt Q58F21). The assay can be described thus: BRDT IC50. The format is binding. On the procedure:
as §3

For the next assay, the target named is AURKC (Homo sapiens (Human), UniProt Q9UQB9). Nature of the assay: AURKC IC50. Type of assay: biochemical.
In another assay the test system is 797. Nature of the assay: Cellular assay, cell viability (ATPlite), 797. Type of assay: cell-based. Particulars: 797 cell line. The protocol:
as §1, §2

The test system of a further assay is MOLM-13. Nature of the assay: Cellular assay, cell viability (ATPlite), MOLM-13. The format is cell-based. Particulars: MOLM-13 cell line. On the procedure:
as §1, §2

The next assay has as its target LRRK2 (Homo sapiens (Human), UniProt Q5S007). Nature of the assay: LRRK2 IC50. The format is biochemical.
The next assay relates to TF-1. Nature of the assay: Cellular assay, cell viability (ATPlite), TF-1. Type of assay: cell-based. Particulars: TF-1 cell line. The protocol:
as §1, §2

The subject of the next assay is Kasumi-1. The assay can be described thus: Cellular assay, cell viability (ATPlite), Kasumi-1. The format is cell-based. Particulars: Homo sapiens; Kasumi-1 cell line. The protocol:
as §1, §2

The mark [1] stands for this setting: first BRD4 value listed for the compound.
Setting [2] is: second BRD4 value listed for the compound.

Each structure is given as a SMILES string. pIC50: −log10 of the molar value. Read-outs that look alike come from different tables or passages of the source.

Sequence of LRRK2 (Q5S007 whole entry): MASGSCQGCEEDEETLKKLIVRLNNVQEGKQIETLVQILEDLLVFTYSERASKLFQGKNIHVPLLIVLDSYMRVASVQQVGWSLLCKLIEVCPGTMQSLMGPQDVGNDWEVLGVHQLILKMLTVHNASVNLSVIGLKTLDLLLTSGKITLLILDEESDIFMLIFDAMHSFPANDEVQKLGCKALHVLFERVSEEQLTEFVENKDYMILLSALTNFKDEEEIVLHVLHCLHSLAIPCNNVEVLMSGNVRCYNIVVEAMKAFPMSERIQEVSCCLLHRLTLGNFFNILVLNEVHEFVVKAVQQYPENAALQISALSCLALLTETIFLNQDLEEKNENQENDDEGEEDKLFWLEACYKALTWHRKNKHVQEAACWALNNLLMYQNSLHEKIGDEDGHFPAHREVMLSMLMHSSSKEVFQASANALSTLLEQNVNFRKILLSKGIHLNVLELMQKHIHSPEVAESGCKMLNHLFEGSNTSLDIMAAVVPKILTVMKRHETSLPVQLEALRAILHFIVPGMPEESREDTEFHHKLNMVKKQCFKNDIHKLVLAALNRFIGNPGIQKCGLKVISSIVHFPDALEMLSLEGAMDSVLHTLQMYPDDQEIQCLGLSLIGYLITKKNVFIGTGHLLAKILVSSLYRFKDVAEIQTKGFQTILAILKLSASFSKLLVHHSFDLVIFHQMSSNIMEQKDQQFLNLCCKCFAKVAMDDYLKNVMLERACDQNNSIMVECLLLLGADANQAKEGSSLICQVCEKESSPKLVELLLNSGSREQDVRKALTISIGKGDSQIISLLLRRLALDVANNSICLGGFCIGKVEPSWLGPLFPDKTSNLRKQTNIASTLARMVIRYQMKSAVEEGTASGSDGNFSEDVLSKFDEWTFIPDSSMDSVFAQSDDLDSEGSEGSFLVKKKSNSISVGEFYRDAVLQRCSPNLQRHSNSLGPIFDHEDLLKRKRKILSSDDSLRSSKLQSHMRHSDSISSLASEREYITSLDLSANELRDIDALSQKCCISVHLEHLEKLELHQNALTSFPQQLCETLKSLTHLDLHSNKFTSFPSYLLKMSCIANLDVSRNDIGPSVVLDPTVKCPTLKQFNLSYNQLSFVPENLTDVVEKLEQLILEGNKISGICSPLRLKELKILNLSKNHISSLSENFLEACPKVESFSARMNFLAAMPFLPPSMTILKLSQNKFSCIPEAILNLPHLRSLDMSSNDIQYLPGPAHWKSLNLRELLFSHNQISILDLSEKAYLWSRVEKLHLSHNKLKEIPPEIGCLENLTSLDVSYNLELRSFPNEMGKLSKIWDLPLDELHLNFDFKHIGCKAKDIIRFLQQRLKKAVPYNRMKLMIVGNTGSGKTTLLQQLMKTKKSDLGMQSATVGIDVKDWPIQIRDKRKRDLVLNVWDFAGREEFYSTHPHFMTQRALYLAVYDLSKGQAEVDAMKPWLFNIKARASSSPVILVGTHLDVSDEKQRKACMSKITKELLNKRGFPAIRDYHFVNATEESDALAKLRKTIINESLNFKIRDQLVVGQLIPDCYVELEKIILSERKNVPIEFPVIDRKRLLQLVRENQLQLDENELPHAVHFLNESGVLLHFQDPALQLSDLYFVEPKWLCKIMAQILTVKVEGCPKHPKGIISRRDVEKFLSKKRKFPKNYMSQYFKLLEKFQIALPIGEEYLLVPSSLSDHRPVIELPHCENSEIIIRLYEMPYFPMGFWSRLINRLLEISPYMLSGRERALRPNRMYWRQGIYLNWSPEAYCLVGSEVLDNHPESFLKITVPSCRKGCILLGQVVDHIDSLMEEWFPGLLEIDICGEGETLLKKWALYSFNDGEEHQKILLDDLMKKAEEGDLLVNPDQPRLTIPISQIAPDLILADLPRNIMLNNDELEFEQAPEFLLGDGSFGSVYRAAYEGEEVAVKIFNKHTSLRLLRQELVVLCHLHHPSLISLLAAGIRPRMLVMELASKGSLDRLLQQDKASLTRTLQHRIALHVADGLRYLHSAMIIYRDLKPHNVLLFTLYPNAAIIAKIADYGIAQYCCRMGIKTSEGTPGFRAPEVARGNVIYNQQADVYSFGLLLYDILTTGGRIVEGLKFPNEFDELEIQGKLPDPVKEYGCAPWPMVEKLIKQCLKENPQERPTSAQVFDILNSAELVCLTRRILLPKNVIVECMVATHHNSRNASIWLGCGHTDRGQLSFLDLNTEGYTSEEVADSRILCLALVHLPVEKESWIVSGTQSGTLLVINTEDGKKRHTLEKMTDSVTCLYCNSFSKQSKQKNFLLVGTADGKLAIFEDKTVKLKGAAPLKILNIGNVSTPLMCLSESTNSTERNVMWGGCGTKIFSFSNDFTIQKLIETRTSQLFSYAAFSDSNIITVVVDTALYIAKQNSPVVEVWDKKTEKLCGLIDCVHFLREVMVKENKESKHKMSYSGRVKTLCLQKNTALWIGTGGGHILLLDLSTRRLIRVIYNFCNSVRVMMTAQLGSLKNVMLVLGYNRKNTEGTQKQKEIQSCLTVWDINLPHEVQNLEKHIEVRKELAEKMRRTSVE
Sequence of AURKC (Q9UQB9 whole entry): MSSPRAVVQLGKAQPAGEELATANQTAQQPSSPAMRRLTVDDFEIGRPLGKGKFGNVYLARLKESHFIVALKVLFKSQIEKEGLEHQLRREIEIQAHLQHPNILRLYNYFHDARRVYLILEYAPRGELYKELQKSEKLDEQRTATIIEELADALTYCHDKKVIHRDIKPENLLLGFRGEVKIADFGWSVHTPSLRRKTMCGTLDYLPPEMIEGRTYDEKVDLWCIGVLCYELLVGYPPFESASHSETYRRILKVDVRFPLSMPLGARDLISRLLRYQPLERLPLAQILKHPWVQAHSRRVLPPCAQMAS
Sequence of AURKA (O14965 whole entry): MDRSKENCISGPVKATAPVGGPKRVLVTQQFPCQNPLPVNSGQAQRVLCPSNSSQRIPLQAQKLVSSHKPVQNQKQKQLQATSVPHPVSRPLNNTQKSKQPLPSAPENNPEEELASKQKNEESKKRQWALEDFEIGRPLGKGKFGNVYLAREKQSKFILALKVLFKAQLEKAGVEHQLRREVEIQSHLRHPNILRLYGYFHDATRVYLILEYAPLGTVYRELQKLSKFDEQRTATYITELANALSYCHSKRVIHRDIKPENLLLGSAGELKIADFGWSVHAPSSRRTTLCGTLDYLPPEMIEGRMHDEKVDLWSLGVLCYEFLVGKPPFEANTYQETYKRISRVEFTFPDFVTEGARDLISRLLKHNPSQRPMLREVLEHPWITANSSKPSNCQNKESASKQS
Sequence of AURKB (Q96GD4 whole entry): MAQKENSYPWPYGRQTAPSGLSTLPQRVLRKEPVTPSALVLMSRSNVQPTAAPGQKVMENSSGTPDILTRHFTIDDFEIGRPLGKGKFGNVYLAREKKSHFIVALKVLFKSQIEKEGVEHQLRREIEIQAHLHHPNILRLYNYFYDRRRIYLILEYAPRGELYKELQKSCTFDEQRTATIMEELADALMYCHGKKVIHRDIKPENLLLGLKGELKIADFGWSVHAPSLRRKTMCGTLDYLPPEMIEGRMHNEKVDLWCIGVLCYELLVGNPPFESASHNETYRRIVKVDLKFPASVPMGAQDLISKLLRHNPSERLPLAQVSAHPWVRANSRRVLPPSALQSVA

Turning to `CN1C(=O)c2ccccc2N(C)c2nc(Nc3ccc(S(N)(=O)=O)cc3)ccc21` [Compound 2-221], the pIC50 in the assay on MV411 is 5.49; with NOMO-1 it was less than 4.70; on AURKA, less than 5.00; on BRD4 (setting [1]) it was 5.52; on BRD4 (setting [2]), 5.49; against AURKB, less than 5.00. In addition, the pIC50 on BRDT was 5.25; against AURKC it was less than 5.00; in the assay with 797, 5.03; in the assay with MOLM-13, 4.96.
Regarding `COc1cc(C(=O)NC2CCN(C)CC2)ccc1Nc1ccc2c(n1)N(C)c1ccccc1C(=O)N2C` [Compound 2-227], the negative-log IC50 (pIC50) in the assay on MV411 is 5.71; at LRRK2, less than 5.00; in the assay with NOMO-1 it was 5.20; at BRD4 (setting [1]), 5.67; on BRD4 (setting [2]) it was 5.73; against BRDT, 5.27. The negative logarithm of the IC50 (pIC50) is 5.24 in the assay with 797 and 5.37 in the assay with MOLM-13.
With `COc1cc(C(=O)N2CCC(N3CCN(C)CC3)CC2)ccc1Nc1ccc2c(n1)N(C)c1ccccc1C(=O)N2C` [Compound 3], the pIC50 in the assay with MV411 (Homo sapiens, MV4-11) is 5.85; against LRRK2, less than 5.00; in the assay on NOMO-1 (Homo sapiens), 5.14; at BRD4 (setting [1]), 5.86; on BRD4 (setting [2]), 6.09; on BRDT, 5.43. In addition, the pIC50 with 797 is 5.60; in the assay on MOLM-13 (Homo sapiens) it was 5.54.
Take `C[C@@H](Oc1cc(-n2cnc3ccc(CN4CCN(C)CC4)cc32)sc1C(N)=O)c1ccccc1C(F)(F)F` [GSK461364, reference compound]: the pIC50 at BRD4 and against BRDT was less than 4.30 in each case. Besides, the “TF-1 IC50” value with TF-1 (result in words) is “poor convergence”.
Turning to `Cc1sc2c(c1C)C(c1ccc(Cl)cc1)=N[C@@H](CC(=O)OC(C)(C)C)c1nnc(C)n1-2` [JQ1, reference compound], the negative-log IC50 (pIC50) with MV411 (Homo sapiens, MV4-11) was 7.18; in the assay on NOMO-1 (Homo sapiens), 6.76; in the assay on Kasumi-1 it was 7.31; in the assay on 797, 7.04; in the assay on TF-1 (Homo sapiens) it was 6.96; in the assay with MOLM-13 (Homo sapiens), 7.05.

Broadly, the pIC50 is the IC50 on a negative log10 scale, so that one unit is a factor of ten. High values mean a low IC50, low ones a high IC50.
